Among the data in the Kinase Knowledgebase extract (Sharma et al. 2016) are Ki values, retold here.

The assay addresses PIK3CG (human) (UniProt P48736). Briefly: Inhibition of PIK3CG Kinase Activity.

Chain of PIK3CG (human) (P48736 whole entry, looked up): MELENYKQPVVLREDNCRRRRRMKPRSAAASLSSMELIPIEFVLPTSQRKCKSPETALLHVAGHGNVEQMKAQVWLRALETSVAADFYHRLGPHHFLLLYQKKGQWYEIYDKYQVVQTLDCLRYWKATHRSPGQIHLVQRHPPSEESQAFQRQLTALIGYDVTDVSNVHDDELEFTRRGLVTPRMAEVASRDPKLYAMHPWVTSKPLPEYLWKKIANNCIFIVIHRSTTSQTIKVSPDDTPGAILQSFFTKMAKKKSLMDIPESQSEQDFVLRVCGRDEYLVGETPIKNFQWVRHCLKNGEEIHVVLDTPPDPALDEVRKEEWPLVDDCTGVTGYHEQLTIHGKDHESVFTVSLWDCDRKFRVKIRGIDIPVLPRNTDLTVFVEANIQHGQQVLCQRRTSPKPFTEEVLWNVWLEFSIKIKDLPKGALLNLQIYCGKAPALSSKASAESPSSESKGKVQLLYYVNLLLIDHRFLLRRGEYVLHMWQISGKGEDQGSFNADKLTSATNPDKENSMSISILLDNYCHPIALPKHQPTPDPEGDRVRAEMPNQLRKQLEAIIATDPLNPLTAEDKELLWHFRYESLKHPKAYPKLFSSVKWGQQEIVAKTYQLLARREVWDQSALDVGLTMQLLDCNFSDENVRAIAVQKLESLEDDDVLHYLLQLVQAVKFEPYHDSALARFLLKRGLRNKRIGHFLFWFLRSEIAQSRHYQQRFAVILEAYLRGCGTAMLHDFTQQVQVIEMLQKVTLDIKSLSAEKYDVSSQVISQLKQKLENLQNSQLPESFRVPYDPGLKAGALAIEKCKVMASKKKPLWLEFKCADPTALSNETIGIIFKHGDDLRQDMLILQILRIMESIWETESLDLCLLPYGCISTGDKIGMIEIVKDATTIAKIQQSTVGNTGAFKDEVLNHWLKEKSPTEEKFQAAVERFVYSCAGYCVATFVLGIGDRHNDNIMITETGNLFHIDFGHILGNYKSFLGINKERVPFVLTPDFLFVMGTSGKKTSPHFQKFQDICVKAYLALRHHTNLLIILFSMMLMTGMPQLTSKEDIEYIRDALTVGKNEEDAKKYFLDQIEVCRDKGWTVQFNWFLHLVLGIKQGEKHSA

As for `CCOc1ncc(-c2cc(C)c3c(n2)C2(CC2)N(c2cnn(CC(F)(F)F)c2)C3=O)cc1OC`, the Ki is less than 100 nM.

`COc1cc(-c2cc(C)c3c(n2)CN(c2ccc(OCCCC(F)(F)F)nc2)C3=O)cnc1OC`: the Ki is less than 100 nM. As for `COCCOCCOc1ncc(-c2cc(C)c3c(n2)CN(c2cnn(CC(F)(F)F)c2)C3=O)cc1OC`, the figure is less than 100 nM; as for `COc1ncc(-c2cc(C)c3c(n2)C(C)(C)N(c2cnn(CC(F)(F)F)c2)C3=O)cc1C(=O)NCC#N`, less than 100 nM. Take `COC(=O)Cc1cncc(N2Cc3nc(-c4cnc(OC)c(OC)c4)ccc3C2=O)c1`: the Ki was less than 100 nM. Under `Cc1cc(-c2cncc(OCC(F)F)c2)nc2c1C(=O)N(c1cnn(CC(F)(F)F)c1)C2C` (stereo not given) stands less than 100 nM; under `COc1cc(-c2ccc3c(n2)CN(c2ccc(N4CCC(OC)CC4)nc2)C3=O)cnc1OC`, less than 100 nM. As for `COc1cncc(-c2cc(C)c3c(n2)C(C)(OC)N(c2cnn(CC(F)(F)F)c2)C3=O)c1` (stereo not given), the figure is less than 100 nM; as for `COc1cc(-c2ccc3c(n2)CN(c2cnn(Cc4ccccn4)c2)C3=O)cnc1OC`, less than 100 nM. As for `COc1ncc(-c2cc(C)c3c(n2)CN(c2cnn(CC#N)c2)C3=O)c(OC)n1`, the figure is less than 100 nM.

With `CCNC(=O)c1cc(-c2cc(C)c3c(n2)C2(COC2)N(c2cnn(CC(F)(F)F)c2)C3=O)cnc1C`, the Ki is less than 100 nM.

The compound `Cc1cc(-c2cncc(C(=O)NC3CCOC3)c2)nc2c1C(=O)N(c1cnn(CC(F)(F)F)c1)C2(C)C` (stereo not given) displayed a Ki of less than 100 nM. Under `CCn1cc(N2Cc3cc(-c4cnc5ccccc5c4)ccc3C2=O)cn1` stands 100 to 490 nM. As for `COc1ncc(-c2cc(C)c3c(n2)CN(c2ccn(C4COC4)n2)C3=O)cc1OC(C)C`, the figure is less than 100 nM; as for `COc1ncc(-c2cc(C)c3c(n2)CN(c2cnn(CC(F)(F)F)c2)C3=O)cc1CO`, less than 100 nM; as for `COc1cc(-c2ccc3c(c2)CN(c2cn[nH]c2)C3=O)cnc1OC`, less than 100 nM. As for `COc1cc(-c2ccc3c(n2)CN(c2ccn(CC4COCCO4)n2)C3=O)cnc1OC` (stereo not given), the figure is less than 100 nM; as for `COCCOCCOc1ncc(-c2cc(C)c3c(n2)CN(c2cnn(CC#N)c2)C3=O)cc1OC`, less than 100 nM. As to `COc1cncc(-c2cc(C)c3c(n2)C(C)(C)N(c2cnn(CC(F)(F)F)c2)C3=O)c1`, the Ki was less than 100 nM. `COc1ccc(-c2cc(C)c3c(n2)CN(c2cnn(CC(F)(F)F)c2)C3=O)c(OC)c1` yielded a Ki of 100 to 490 nM.

As for `Cc1cc(-c2cncc(C(=O)NC(C)C)c2)nc2c1C(=O)N(c1cnn(CC(F)(F)F)c1)C2(C)C`, the inhibition constant Ki was less than 100 nM. As for `Cc1cc(-c2cncc(C(=O)N(C)C(C)CO)c2)nc2c1C(=O)N(c1cnn(CC(F)(F)F)c1)C2(C)C` (stereo not given), the figure is less than 100 nM; as for `COc1cc(-c2ccc3c(n2)[C@H](C)N(c2ccn(CC(C)(C)F)n2)C3=O)cnc1OC`, less than 100 nM; as for `Cc1cc(-c2cncc(OCC(F)F)c2)nc2c1C(=O)N(c1cnn(CC(F)F)c1)C2C` (stereo not given), less than 100 nM. Consider `Cc1cncc(-c2cc(C)c3c(n2)CN(c2cnn(CC#N)c2)C3=O)c1`, for which the Ki was less than 100 nM.

In turn, `CC(C)(C#N)n1cc(N2Cc3nc(-c4cncc(OC(F)F)c4)ccc3C2=O)cn1` registered a Ki of 100 to 490 nM. Take `CCOc1ncc(-c2ccc3c(c2)CN(c2cnn(CC#N)c2)C3=O)cc1OC`: the Ki was less than 100 nM. As for `COc1cc(-c2ccc3c(n2)[C@H](C)N(c2ccn(CC(C)(C)O)n2)C3=O)cnc1OC`, the figure is less than 100 nM. In the case of `Cc1cc(-c2cc(O)cs2)nc2c1C(=O)N(c1cnn(CC(F)(F)F)c1)C2`, the Ki was less than 100 nM. As for `COCCOCCOc1ncc(-c2cc(C)c3c(c2)CN(c2cnn(CC#N)c2)C3=O)cc1OC`, the figure is less than 100 nM; as for `COc1cc(-c2cc(C)c3c(n2)CN(c2cnn(CC#N)c2)C3=O)cnc1OC`, less than 100 nM; as for `CCOc1cncc(-c2cc(C)c3c(n2)C(C)(C)N(c2cn[nH]c2)C3=O)c1`, 100 to 490 nM. Under `CCCCn1cc(N2Cc3cc(-c4cnc(OC)c(OC)c4)ccc3C2=O)cn1` stands 100 to 490 nM; under `CCOc1cncc(-c2cc(C)c3c(n2)[C@@H](C)N(c2cnn(CC(F)(F)F)c2)C3=O)c1`, less than 100 nM; under `COc1cncc(-c2cc(C)c3c(n2)[C@@H](C)N(c2cn[nH]c2)C3=O)c1`, less than 100 nM. As for `Cc1cc(-c2cncc(OCC(F)F)c2)nc2c1C(=O)N(c1cc[nH]n1)C2C` (stereo not given), the figure is 100 to 490 nM; as for `CCn1ccc(N2Cc3cc(-c4cnc(OC)c(OC)c4)ccc3C2=O)n1`, less than 100 nM.

As to `Cc1cc(-c2cnc(F)c(O)c2)nc2c1C(=O)N(c1cnn(CC(F)(F)F)c1)C2(C)C`, the Ki was less than 100 nM. Under `COc1cc(-c2ccc3c(c2)CN(c2cnn(CC#N)c2)C3=O)cnc1OC` stands less than 100 nM; under `CNC(=O)c1cncc(-c2cc(C)c3c(n2)CN(c2cnn(CC(F)(F)F)c2)C3=O)c1`, less than 100 nM. As for `COc1cc(-c2cc(C)c3c(n2)C(C)N(c2cnn(C[C@@H](C)O)c2)C3=O)cnc1OC` (stereo not given in full), the figure is less than 100 nM. Under `CCC(=O)Nc1cncc(-c2cc(C)c3c(n2)C(C)(C)N(c2cnn(CC(F)(F)F)c2)C3=O)c1` stands 100 to 490 nM; under `COc1cc(-c2ccc3c(c2)CN(c2cc(C4CC4)[nH]n2)C3=O)cnc1OC`, less than 100 nM.

`COc1cc(-c2ccc3c(c2)CN(c2cscn2)C3=O)cnc1OC` came in with a Ki of 100 to 490 nM. As for `Cc1ncc(-c2ccc3c(n2)CN(c2cnn(CC(F)(F)F)c2)C3=O)cc1OCC(F)F`, the figure is 100 to 490 nM; as for `Cc1cc(-c2cncc(OC(F)F)c2)nc2c1C(=O)N(c1cncc(CC#N)c1)C2C` (stereo not given), less than 100 nM; as for `CCOc1ncc(-c2cc(C)c3c(n2)CN(c2cc[nH]n2)C3=O)cc1OC`, less than 100 nM.

Regarding `Cc1cc(-c2cnc(C)c(C(=O)N(C)C)c2)nc2c1C(=O)N(c1cnn(CC(F)(F)F)c1)C2(C)C`, the Ki was less than 100 nM.

In turn, `COc1cc(-c2ccc3c(n2)C(C)N(c2cncc(C(C)(C)C#N)c2)C3=O)cnc1OC` (stereo not given) displayed a Ki of 100 to 490 nM. As for `CCc1cc(N2Cc3nc(-c4cnc(OC)c(OC)c4)cc(C)c3C2=O)nn1CC`, the figure is less than 100 nM; as for `COc1cc(-c2cc(C)c3c(n2)CN(c2cnn(CC(F)(F)F)c2)C3=O)cc(OC)n1`, less than 100 nM; as for `COc1ncc(-c2cc(C)c3c(n2)CN(c2cnn(C(C)(C)C#N)c2)C3=O)c(OC)n1`, less than 100 nM. Under `COc1ncc(-c2cc(C)c3c(n2)CN(c2cnn(C)c2)C3=O)cc1OC(F)F` stands less than 100 nM. As to `COCCOCCOc1ncc(-c2cc(C)c3c(c2)CN(c2cnn(CC(F)(F)F)c2)C3=O)cc1OC`, the Ki is 100 to 490 nM. Under `COc1ncc(-c2cc(C)c3c(c2)C(C)N(c2cnn(CC(F)(F)F)c2)C3=O)cc1OC(F)F` (stereo not given) stands less than 100 nM; under `COc1cncc(-c2cc(C)c3c(n2)C(C)N(c2cn(C)cn2)C3=O)c1` (stereo not given), less than 100 nM. As for `CCNC(=O)c1cc(-c2cc(C)c3c(n2)C(C)N(c2cnn(CC(F)F)c2)C3=O)cnc1OC` (stereo not given), the figure is less than 100 nM; as for `CCOc1cc(-c2cc(C)c3c(n2)CN(c2cnn(CC#N)c2)C3=O)cnc1OCC`, less than 100 nM.

On to `COc1cc(-c2ccc3c(c2)CN(c2ccnc(C)c2)C3=O)cnc1OC`, for which the Ki was 100 to 490 nM. Under `COc1cc(-c2ccc3c(n2)CN(c2ccc(N4CCC[C@@H]4CO)nc2)C3=O)cnc1OC` stands less than 100 nM; under `CCOc1cncc(-c2cc(C)c3c(n2)C(OC)N(c2cnn(CC(F)(F)F)c2)C3=O)c1` (stereo not given), less than 100 nM; under `COc1ncc(-c2ccc3c(n2)CN(c2cnn(CC#N)c2)C3=O)cn1`, 100 to 490 nM. As for `COc1cc(-c2cc(C)c3c(n2)C(O)(OC)N(c2cnn(CC(F)(F)F)c2)C3=O)cnc1OC` (stereo not given), the figure is less than 100 nM; as for `CO[C@H]1c2nc(-c3cncc(OCC(F)F)c3)cc(C)c2C(=O)N1c1cnn(CC(F)(F)F)c1`, less than 100 nM. Under `Cc1cc(-c2cc(C)c3c(n2)CN(c2cnn(CC(F)(F)F)c2)C3=O)ccn1` stands less than 100 nM; under `COc1cc(-c2ccc3c(n2)CN(c2ccc(N4CCC(F)CC4)nc2)C3=O)cnc1OC`, less than 100 nM; under `COc1cc(-c2ccc3c(n2)C(C)N(c2cnn(C(C)(C)C#N)c2)C3=O)cnc1OC` (stereo not given), less than 100 nM. In turn, `COc1cc(-c2ccc3c(n2)CN(c2ccc(N4CCC(CO)CC4)nc2)C3=O)cnc1OC` showed a Ki of less than 100 nM.

On to `Cc1cc(-c2cncc(C(=O)NCC(C)C)c2)nc2c1C(=O)N(c1cnn(CC(F)(F)F)c1)C2(C)C`, for which the Ki is less than 100 nM. Under `COc1cc(-c2ccc3c(n2)[C@@H](C)N(c2cc[nH]n2)C3=O)cnc1OC` stands less than 100 nM. Under `COc1cc(-c2ccc3c(n2)C(C)N(c2ccn(CC(C)(C)O)n2)C3=O)cnc1OC` (stereo not given) stands less than 100 nM; under `Cc1cc(-c2cnc(C)c(O)c2)nc2c1C(=O)N(c1cnn(CC(F)(F)F)c1)C2`, less than 100 nM; under `COc1cc(-c2ccc3c(n2)CN(c2ccc(=O)n(CC(F)(F)F)c2)C3=O)cnc1OC`, less than 100 nM. Under `COc1ncc(-c2cc(C)c3c(n2)C(C)(C)N(c2cnn(CC(F)(F)F)c2)C3=O)cc1C(=O)NC(C)CO` (stereo not given) stands less than 100 nM. In the case of `Cc1cc(-c2cnc(C)c(OCC(F)F)c2)nc2c1C(=O)N(c1cnn(CC(F)F)c1)C2C` (stereo not given), the Ki is less than 100 nM. In the case of `COc1cc(-c2cc(OC)c3c(n2)CN(c2cnn(CC(F)(F)F)c2)C3=O)cnc1OC`, the Ki was less than 100 nM.

In the case of `COc1cc(-c2cc(C)c3c(n2)CN(c2cnn(CC(F)(F)F)c2)C3=O)ccc1F`, the Ki is less than 100 nM.

Turning to `Cc1cc(-c2cncc(C(=O)NCC(F)(F)F)c2)nc2c1C(=O)N(c1cnn(CC(F)(F)F)c1)C2(C)C`, the Ki is less than 100 nM. As for `COc1cc(-c2ccc3c(n2)CN(c2ccc(C)s2)C3=O)cnc1OC`, the figure is less than 100 nM; as for `CCNC(=O)c1cc(-c2cc(C)c3c(n2)C(C)(C)N(c2cnn(CC(F)(F)F)c2)C3=O)cnc1C`, less than 100 nM; as for `COc1ncc(-c2cc(C)c3c(n2)CN(c2cnn(CC(F)(F)F)c2)C3=O)cc1O`, less than 100 nM.

In the case of `COc1cc(OC)cc(-c2cc(C)c3c(n2)[C@H](C)N(c2cnn(CC(F)(F)F)c2)C3=O)c1`, the Ki was less than 100 nM.

With `COc1cc(-c2ccc3c(n2)CN(c2cnn(CC(C)O)c2)C3=O)cnc1OC` (stereo not given), the Ki is less than 100 nM. As for `CCOc1cncc(-c2cc(C)c3c(n2)C(C)(C)N(c2cnn(CC(F)F)c2)C3=O)c1`, the figure is less than 100 nM; as for `CCNC(=O)c1cncc(-c2cc(C)c3c(n2)C(C)(C)N(c2cnn(CC(F)(F)F)c2)C3=O)c1`, less than 100 nM.

The Ki is a measure of affinity in units of concentration, obtained from inhibition or displacement. A high value points to a looser hold on the target.
